Reference: the supplement of paper PMC10307832

What was measured:
Assay in all cases: relative viability (nuclei count vs DMSO), 5 days (fraction); higher = more cells survive
Bosutinib = compound: COc1cc(Nc2c(C#N)cnc3cc(OCCCN4CCN(C)CC4)c(OC)cc23)c(Cl)cc1Cl [Bosutinib]
How it was run: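 Five library-drug doses, separated by factors of √10, were pinned into 1536-well plates holding lung cancer cell lines after an overnight stay at 37 °C. Cells were fixed, permeabilised and Hoechst-stained in one step after 5 days without medium change, then imaged at 4×. Viability compares treated-well with vehicle-well nuclei, counted in MetaXpress, as a median across plates. Passing plates had control CV below 25% and at least one doubling.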

Bosutinib + Olaparib = compound: COc1cc(Nc2c(C#N)cnc3cc(OCCCN4CCN(C)CC4)c(OC)cc23)c(Cl)cc1Cl [Bosutinib] + O=C(c1cc(Cc2n[nH]c(=O)c3ccccc23)ccc1F)N1CCN(C(=O)C2CC2)CC1 [Olaparib] (partner 8 µM)
How it was run: (§1)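 Relative viability equals treated-well nuclei counts divided by vehicle-well nuclei counts. Counts came from 4× images of lung cancer cell lines grown in 1536-well plates for 5 days after pin-tool dosing on the day after seeding. Dosing used one drug alone or a fixed anchor-drug dose plus five library-drug doses (not always all listed) in √10 steps, and values are medians of duplicate plates.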

Bosutinib + Crizotinib = compound: COc1cc(Nc2c(C#N)cnc3cc(OCCCN4CCN(C)CC4)c(OC)cc23)c(Cl)cc1Cl [Bosutinib] + C[C@@H](Oc1cc(-c2cnn(C3CCNCC3)c2)cnc1N)c1c(Cl)ccc(F)c1Cl [Crizotinib] (partner 1 µM)
How it was run: as §1

Bosutinib + Alpelisib = compound: COc1cc(Nc2c(C#N)cnc3cc(OCCCN4CCN(C)CC4)c(OC)cc23)c(Cl)cc1Cl [Bosutinib] + Cc1nc(NC(=O)N2CCC[C@H]2C(N)=O)sc1-c1ccnc(C(C)(C)C(F)(F)F)c1 [Alpelisib] (partner 2 µM)
How it was run: as §1

Bosutinib + Dasatinib = compound: COc1cc(Nc2c(C#N)cnc3cc(OCCCN4CCN(C)CC4)c(OC)cc23)c(Cl)cc1Cl [Bosutinib] + Cc1nc(Nc2ncc(C(=O)Nc3c(C)cccc3Cl)s2)cc(N2CCN(CCO)CC2)n1 [Dasatinib] (partner 0.075 µM)
How it was run: as §1

Row | Cell Line | relative viability (Bosutinib; 0.01 µM) | relative viability (Bosutinib; 0.03162 µM) | relative viability (Bosutinib; 0.1 µM) | relative viability (Bosutinib; 1 µM) | relative viability (Bosutinib + Olaparib; first compound 0.01 µM) | relative viability (Bosutinib + Olaparib; first compound 0.03162 µM) | relative viability (Bosutinib + Olaparib; first compound 0.1 µM) | relative viability (Bosutinib + Olaparib; first compound 1 µM) | relative viability (Bosutinib + Crizotinib; first compound 0.01 µM) | relative viability (Bosutinib + Crizotinib; first compound 0.03162 µM) | relative viability (Bosutinib + Crizotinib; first compound 0.1 µM) | relative viability (Bosutinib + Crizotinib; first compound 1 µM) | relative viability (Bosutinib + Alpelisib; first compound 0.01 µM) | relative viability (Bosutinib + Alpelisib; first compound 0.03162 µM) | relative viability (Bosutinib + Alpelisib; first compound 0.1 µM) | relative viability (Bosutinib + Alpelisib; first compound 1 µM) | relative viability (Bosutinib + Dasatinib; first compound 0.01 µM) | relative viability (Bosutinib + Dasatinib; first compound 0.03162 µM) | relative viability (Bosutinib + Dasatinib; first compound 0.1 µM) | relative viability (Bosutinib + Dasatinib; first compound 1 µM)
1 | NCI-H2087 | 1.07 | 1.04 | 0.951 | 1.08 | 0.663 | 0.599 | 0.749 | 0.649 | 0.905 | 0.991 | 0.817 | 0.908 | 1.18 | 1.15 | 1.19 | 1 | 0.871 | 0.848 | 0.913 | 0.848
2 | NCI-H2126 | 0.972 | 0.997 | 0.969 | 0.994 | 0.892 | 0.885 | 0.916 | 0.936 | 0.934 | 1.02 | 0.987 | 0.957 | 0.712 | 0.781 | 0.733 | 0.685 | 0.583 | 0.571 | 0.594 | 0.62
3 | NCI-H2170 | 1.01 | 0.974 | 1.01 | 0.926 | 0.529 | 0.571 | 0.539 | 0.499 | 1.25 | 1.14 | 1.15 | 1.06 | 0.821 | 0.866 | 0.797 | 0.711 | 0.559 | 0.583 | 0.556 | 0.608
4 | NCI-H2228 | 0.906 | 0.918 | 0.989 | 0.882 | 0.654 | 0.671 | 0.468 | 0.735 | 0.472 |  | 0.402 | 0.333 | 0.772 |  | 0.75 | 0.587 | 0.494 | 0.474 | 0.56 | 0.62
5 | NCI-H2347 | 1.03 | 1.09 | 0.992 | 1.06 | 0.491 | 0.609 | 0.545 | 0.539 | 0.835 | 0.877 | 0.914 | 0.648 | 1 | 1.07 | 1.06 | 1.12 | 0.296 | 0.324 | 0.314 | 0.258
6 | NCI-H2405 | 1.05 | 1.1 | 1.03 | 0.801 | 0.978 | 0.887 | 0.902 | 0.691 | 0.945 | 0.855 | 0.891 | 0.576 | 0.886 | 0.759 | 0.837 | 0.365 | 0.259 | 0.204 | 0.215 | 0.238
7 | NCI-H3122 | 1.02 | 1.02 | 1.01 | 0.993 | 0.678 | 0.653 | 0.658 | 0.559 | 0.287 | 0.282 | 0.328 | 0.322 | 0.769 | 0.797 | 0.821 | 0.993 | 0.894 | 0.716 | 0.768 | 0.781
8 | PC-3 [JPC-3] | 1.04 | 1.07 | 1.06 | 0.745 | 1.08 | 1.09 | 1.06 | 0.663 | 0.899 | 0.939 | 0.978 | 0.942 | 0.962 | 1.03 | 1.02 | 0.937 | 1.04 | 0.931 | 0.996 | 0.834
9 | PC-14 | 1.03 | 0.977 | 0.871 | 0.336 | 0.241 | 0.342 | 0.208 | 0.21 | 0.807 | 0.928 | 0.788 | 0.313 | 0.91 | 0.9 | 0.828 | 0.323 | 0.282 | 0.239 | 0.238 | 0.0662
10 | RERF-LC-KJ | 0.997 | 0.971 | 0.978 | 0.948 | 0.883 | 0.867 | 0.958 | 0.989 | 0.863 | 0.827 | 0.846 | 0.88 | 0.702 | 0.834 | 0.756 | 0.678 | 0.746 | 0.882 | 0.826 | 0.735
11 | SK-LU-1 | 0.995 | 1.06 | 1.05 | 0.629 | 0.474 | 0.686 | 0.5 | 0.383 | 0.9 | 0.819 | 0.807 | 0.48 | 0.949 | 1.31 | 1.12 | 0.46 | 0.221 | 0.174 | 0.186 | 0.255
12 | SK-MES-1 | 1.02 | 1.01 | 1.01 | 0.815 | 0.671 | 0.896 | 0.798 | 0.458 | 0.954 | 1.03 | 0.997 | 0.96 | 0.876 | 0.971 | 0.999 | 1.06 | 0.372 | 0.412 | 0.393 | 0.392
13 | SW 1573 | 1.05 | 1.02 | 0.941 | 0.924 | 0.533 | 0.457 | 0.528 | 0.484 | 0.655 | 0.813 | 0.917 | 0.782 | 0.834 | 0.787 | 0.767 | 0.65 | 0.459 | 0.553 | 0.505 | 0.583
14 | UMC-11 | 1 | 1.01 | 0.956 | 0.912 | 0.64 | 0.672 | 0.248 | 0.686 | 0.597 | 0.622 | 0.555 | 0.579 | 1 | 1.04 | 0.934 | 0.847 | 0.409 | 0.454 | 0.456 | 0.455
